Measured values taken from US20240409585A1, “MACROCYCLIC IMMUNOMODULATORS” (priority 2021, published 2024).
Bridge positions count the residues as written; N and C are the ends. Square brackets hold non-standard residues; d marks the D form. Peptide text beside a SMILES is read from it. * marks the point of attachment. ξ: configuration not given here. Phe(4-COOH) = N[C@@H](Cc1ccc(C(=O)O)cc1)C(=O)O; Ala(4-thiazolyl) = N[C@@H](Cc1cscn1)C(=O)O; Bip = N[C@@H](Cc1ccc(-c2ccccc2)cc1)C(=O)O; Phe(3-Me) = Cc1cccc(C[C@H](N)C(=O)O)c1; Cyclopropanecarbonyl = O=C(C1CC1)*; aIle = CC[C@@H](C)[C@H](N)C(=O)O; Cha = N[C@@H](CC1CCCCC1)C(=O)O; Cit = NC(=O)NCCC[C@H](N)C(=O)O; Ile(3ξ) = CCC(C)[C@H](N)C(=O)O; Thr(3ξ) = CC(O)[C@H](N)C(=O)O; Ala(CN) = N#CC[C@H](N)C(=O)O; ξCha = NC(CC1CCCCC1)C(=O)O; Carboxymethyl = O=C(O)C*; NMeA = CN[C@@H](C)C(=O)O; Orn = NCCC[C@H](N)C(=O)O; Dab = NCC[C@H](N)C(=O)O; Dap = NC[C@H](N)C(=O)O; ξL = CC(C)CC(N)C(=O)O; ξV = CC(C)C(N)C(=O)O

Biological target: T1, PE-labeled human PD-L1-Ig binding to Jurkat cell line over-expressing human PD-1 (Jurkat-PD-1) (Homo sapiens, UniProt Q15116)
T1 construct: expressed in transfected cells; host or cells: Jurkat
Assay: Jurkat-PD-1 Cell Binding High-Content Screening Assay (CBA): Method 1
Conditions: Jurkat-hPD-1 cells, PE-labeled PD-L1-Ig 20 nM final; read-out: Jurkat HPDL1 PD1 IC50 (uM) (Method 1)

T1 sequence (Q15116 25-288): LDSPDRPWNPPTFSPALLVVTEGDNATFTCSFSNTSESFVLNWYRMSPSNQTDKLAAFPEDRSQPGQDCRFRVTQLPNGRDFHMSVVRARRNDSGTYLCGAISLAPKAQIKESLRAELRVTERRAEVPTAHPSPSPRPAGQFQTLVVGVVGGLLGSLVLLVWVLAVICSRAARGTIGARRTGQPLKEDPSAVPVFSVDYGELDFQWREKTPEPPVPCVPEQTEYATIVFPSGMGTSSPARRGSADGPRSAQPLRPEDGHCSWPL

IC50 [µM] | SMILES
0.05 | CC[C@@H](C)[C@@H]1NC(=O)[C@H](Cc2ccc(-c3ccccc3)cc2)NC(=O)[C@H](CC(C)C)NC(=O)[C@H](Cc2c[nH]c3ccccc23)NC(=O)[C@H](CC(=O)O)NC(=O)[C@H](Cc2ccc(C(=O)O)cc2)NC(=O)[C@H](Cc2ccc(OCC(=O)O)cc2)NC(=O)CSC[C@@H](C(=O)N[C@@H](CCCCN)C(N)=O)NC(=O)[C@H](Cc2cnc[nH]2)NC(=O)C(C(C)C)NC(=O)[C@H](CC(C)C)NC(=O)[C@H](CC(N)=O)NC(=O)[C@@H](CC(C)C)NC(=O)[C@H](C)N(C)C1=O (stereo partly drawn) [Compound 2104] ({CH2CO}-Y(Carboxymethyl)[Phe(4-COOH)]DWL[Bip][aIle][NMeA][dL]NL[ξV]HCK-NH2; thioether N-14)
0.1 | CC[C@@H](C)[C@@H]1NC(=O)[C@H](Cc2ccc(-c3ccccc3)cc2)NC(=O)[C@H](CC(C)C)NC(=O)[C@H](Cc2c[nH]c3ccccc23)NC(=O)[C@H](CC(=O)O)NC(=O)[C@H](Cc2ccc(C(=O)O)cc2)NC(=O)[C@H](Cc2ccc(OCC(=O)O)cc2)NC(=O)CSC[C@@H](C(=O)N[C@@H](CCCCN)C(N)=O)NC(=O)[C@H](CC(=O)O)NC(=O)C(C(C)C)NC(=O)[C@H](CC(C)C)NC(=O)[C@H](CC(N)=O)NC(=O)[C@@H](CC(C)C)NC(=O)[C@H](C)N(C)C1=O (stereo partly drawn) [Compound 2105] ({CH2CO}-Y(Carboxymethyl)[Phe(4-COOH)]DWL[Bip][aIle][NMeA][dL]NL[ξV]DCK-NH2; thioether N-14)
0.06 | CC[C@@H](C)[C@@H]1NC(=O)[C@H](Cc2ccc(-c3ccccc3)cc2)NC(=O)[C@H](CC(C)C)NC(=O)[C@H](Cc2c[nH]c3ccccc23)NC(=O)[C@H](CC(=O)O)NC(=O)[C@H](Cc2ccc(C(=O)O)cc2)NC(=O)[C@H](Cc2ccc(OCC(=O)O)cc2)NC(=O)CSC[C@@H](C(=O)N[C@@H](CCCCN)C(N)=O)NC(=O)[C@H](CC#N)NC(=O)C(C(C)C)NC(=O)[C@H](CC(C)C)NC(=O)[C@H](CC(N)=O)NC(=O)[C@@H](CC(C)C)NC(=O)[C@H](C)N(C)C1=O (stereo partly drawn) [Compound 2106] ({CH2CO}-Y(Carboxymethyl)[Phe(4-COOH)]DWL[Bip][aIle][NMeA][dL]NL[ξV][Ala(CN)]CK-NH2; thioether N-14)
0.11 | CC[C@@H](C)[C@@H]1NC(=O)[C@H](Cc2ccc(-c3ccccc3)cc2)NC(=O)[C@H](CC(C)C)NC(=O)[C@H](Cc2c[nH]c3ccccc23)NC(=O)[C@H](CC(=O)O)NC(=O)[C@H](Cc2ccc(C(=O)O)cc2)NC(=O)[C@H](Cc2ccc(OCC(=O)O)cc2)NC(=O)CSC[C@@H](C(=O)N[C@@H](CCCCN)C(N)=O)NC(=O)[C@H](CN)NC(=O)C(C(C)C)NC(=O)[C@H](CC(C)C)NC(=O)[C@H](CC(N)=O)NC(=O)[C@@H](CC(C)C)NC(=O)[C@H](C)N(C)C1=O (stereo partly drawn) [Compound 2108] ({CH2CO}-Y(Carboxymethyl)[Phe(4-COOH)]DWL[Bip][aIle][NMeA][dL]NL[ξV][Dap]CK-NH2; thioether N-14)
0.02 | Cc1cccc(C[C@@H]2NC(=O)[C@H](CC(=O)O)NC(=O)[C@H](Cc3ccc(OCC(=O)O)cc3)NC(=O)[C@H](CCCNC(=O)C3CC3)NC(=O)CSC[C@@H](C(=O)N[C@@H](CO)C(N)=O)NC(=O)[C@H](CO)NC(=O)[C@H](C(C)O)NC(=O)C(CC3CCCCC3)NC(=O)[C@H](CCCNC(=N)N)NC(=O)[C@@H](CC(C)C)NC(=O)[C@H](C)N(C)C(=O)[C@H](CCCNC(N)=O)NC(=O)[C@H](Cc3ccc(-c4ccccc4)cc3)NC(=O)[C@H](C(C)C)NC2=O)c1 (stereo partly drawn) [Compound 2113] ({CH2CO}-[Orn](Cyclopropanecarbonyl)Y(Carboxymethyl)D[Phe(3-Me)]V[Bip][Cit][NMeA][dL]R[ξCha][Thr(3ξ)]SCS-NH2; thioether N-14)

Continued, compound first:

SMILES | IC50 [µM]
CC[C@@H](C)[C@@H]1NC(=O)[C@H](Cc2ccc(-c3ccccc3)cc2)NC(=O)[C@H](CC(C)C)NC(=O)[C@H](Cc2c[nH]c3ccccc23)NC(=O)[C@H](CC(=O)O)NC(=O)[C@H](Cc2ccc(C(=O)O)cc2)NC(=O)[C@H](Cc2ccc(OCC(=O)O)cc2)NC(=O)CSC[C@@H](C(=O)N[C@@H](CCCCN)C(N)=O)NC(=O)[C@H](Cc2cscn2)NC(=O)C(C(C)C)NC(=O)[C@H](CC(C)C)NC(=O)[C@H](CC(N)=O)NC(=O)[C@@H](CC(C)C)NC(=O)[C@H](C)N(C)C1=O (stereo partly drawn) [Compound 2107] ({CH2CO}-Y(Carboxymethyl)[Phe(4-COOH)]DWL[Bip][aIle][NMeA][dL]NL[ξV][Ala(4-thiazolyl)]CK-NH2; thioether N-14) | 0.24
CC[C@@H](C)[C@@H]1NC(=O)[C@H](Cc2ccc(-c3ccccc3)cc2)NC(=O)[C@H](CC(C)C)NC(=O)[C@H](Cc2c[nH]c3ccccc23)NC(=O)[C@H](CC(=O)O)NC(=O)[C@H](Cc2ccc(C(=O)O)cc2)NC(=O)[C@H](Cc2ccc(OCC(=O)O)cc2)NC(=O)CSC[C@@H](C(=O)N[C@@H](CCCCN)C(N)=O)NC(=O)[C@H](CC(N)=O)NC(=O)C(C(C)C)NC(=O)[C@H](CC(C)C)NC(=O)[C@H](CC(N)=O)NC(=O)[C@@H](CC(C)C)NC(=O)[C@H](C)N(C)C1=O (stereo partly drawn) [Compound 2109] ({CH2CO}-Y(Carboxymethyl)[Phe(4-COOH)]DWL[Bip][aIle][NMeA][dL]NL[ξV]NCK-NH2; thioether N-14) | 0.2
Cc1cccc(C[C@@H]2NC(=O)[C@H](CC(=O)O)NC(=O)[C@H](Cc3ccc(C(=O)O)cc3)NC(=O)[C@H](Cc3ccc(OCC(=O)O)cc3)NC(=O)CSC[C@@H](C(=O)N[C@@H](CO)C(N)=O)NC(=O)[C@H](CO)NC(=O)[C@H](C(C)C)NC(=O)[C@H](CC(C)C)NC(=O)[C@H](CCN)NC(=O)[C@@H](CC(C)C)NC(=O)[C@H](C)N(C)C(=O)[C@H](C(C)C)NC(=O)[C@H](Cc3ccc(-c4ccccc4)cc3)NC(=O)[C@H](CC(C)C)NC2=O)c1 [Compound 2111] ({CH2CO}-Y(Carboxymethyl)[Phe(4-COOH)]D[Phe(3-Me)]L[Bip]V[NMeA][dL][Dab]LVSCS-NH2; thioether N-14) | 0.01
Cc1cccc(C[C@@H]2NC(=O)[C@H](CC(=O)O)NC(=O)[C@H](Cc3ccc(C(=O)O)cc3)NC(=O)[C@H](Cc3ccc(OCC(=O)O)cc3)NC(=O)CSC[C@@H](C(=O)N[C@H](CC(N)=O)C(N)=O)NC(=O)[C@H](CO)NC(=O)[C@H](C(C)C)NC(=O)[C@H](CC(C)C)NC(=O)[C@H](CCN)NC(=O)[C@@H](CC(C)C)NC(=O)[C@H](C)N(C)C(=O)[C@H](C(C)C)NC(=O)[C@H](Cc3ccc(-c4ccccc4)cc3)NC(=O)[C@H](CC(C)C)NC2=O)c1 [Compound 2112] ({CH2CO}-Y(Carboxymethyl)[Phe(4-COOH)]D[Phe(3-Me)]L[Bip]V[NMeA][dL][Dab]LVSC[dN]-NH2; thioether N-14) | 0.02
CCC(C)[C@@H]1NC(=O)[C@H](Cc2ccc(-c3ccccc3)cc2)NC(=O)[C@H](C(C)C)NC(=O)[C@H](Cc2c[nH]c3ccccc23)NC(=O)[C@H](CC(=O)O)NC(=O)[C@H](Cc2ccc(OCC(=O)O)cc2)NC(=O)[C@H](C(C)O)NC(=O)CSC[C@@H](C(=O)N[C@@H](CCN)C(N)=O)NC(=O)[C@H](C(C)O)NC(=O)[C@H](C(C)C)NC(=O)[C@H](CC2CCCCC2)NC(=O)[C@H](CCN)NC(=O)C(CC(C)C)NC(=O)[C@H](C)N(C)C1=O (some centres unmarked) [Compound 2114] ({CH2CO}-[Thr(3ξ)]Y(Carboxymethyl)DWV[Bip][Ile(3ξ)][NMeA][ξL][Dab][Cha]V[Thr(3ξ)]C[Dab]-NH2; thioether N-14) | 0.02
Cc1cccc(C[C@@H]2NC(=O)[C@H](CC(=O)O)NC(=O)[C@H](Cc3ccc(OCC(=O)O)cc3)NC(=O)[C@H](C(C)O)NC(=O)CSC[C@@H](C(=O)N[C@@H](CCN)C(N)=O)NC(=O)[C@H](C(C)O)NC(=O)[C@H](C(C)C)NC(=O)[C@H](CC3CCCCC3)NC(=O)[C@H](CCN)NC(=O)[C@@H](CC(C)C)NC(=O)[C@H](C)N(C)C(=O)[C@H](Cc3ccc(OCC(=O)O)cc3)NC(=O)[C@H](Cc3ccc(-c4ccccc4)cc3)NC(=O)[C@H](Cc3ccc(C(=O)O)cc3)NC2=O)c1 (stereo partly drawn) [Compound 2115] ({CH2CO}-[Thr(3ξ)]Y(Carboxymethyl)D[Phe(3-Me)][Phe(4-COOH)][Bip]Y(Carboxymethyl)[NMeA][dL][Dab][Cha]V[Thr(3ξ)]C[Dab]-NH2; thioether N-14) | 0.01
CCC(C)[C@@H]1NC(=O)[C@H](Cc2ccc(-c3ccccc3)cc2)NC(=O)[C@H](C(C)C)NC(=O)[C@H](Cc2cccc(C)c2)NC(=O)[C@H](CC(=O)O)NC(=O)[C@H](Cc2ccc(OCC(=O)O)cc2)NC(=O)[C@H](C(C)O)NC(=O)CSC[C@@H](C(=O)N[C@@H](CCN)C(N)=O)NC(=O)[C@H](C(C)O)NC(=O)[C@H](C(C)C)NC(=O)[C@H](CC2CCCCC2)NC(=O)[C@H](CCN)NC(=O)[C@@H](CC(C)C)NC(=O)[C@H](C)N(C)C1=O (stereo partly drawn) [Compound 2116] ({CH2CO}-[Thr(3ξ)]Y(Carboxymethyl)D[Phe(3-Me)]V[Bip][Ile(3ξ)][NMeA][dL][Dab][Cha]V[Thr(3ξ)]C[Dab]-NH2; thioether N-14) | 0.01
CCC(C)[C@@H]1NC(=O)[C@H](Cc2ccc(-c3ccccc3)cc2)NC(=O)[C@H](C(C)C)NC(=O)[C@H](Cc2c[nH]c3ccccc23)NC(=O)[C@H](CC(=O)O)NC(=O)[C@H](Cc2ccc(OCC(=O)O)cc2)NC(=O)[C@H](C(C)O)NC(=O)CSC[C@@H](C(=O)N[C@H](CC(N)=O)C(N)=O)NC(=O)[C@H](CO)NC(=O)[C@H](C(C)C)NC(=O)[C@H](CC2CCCCC2)NC(=O)[C@H](CCN)NC(=O)[C@@H](CC(C)C)NC(=O)[C@H](C)N(C)C1=O (stereo partly drawn) [Compound 2117] ({CH2CO}-[Thr(3ξ)]Y(Carboxymethyl)DWV[Bip][Ile(3ξ)][NMeA][dL][Dab][Cha]VSC[dN]-NH2; thioether N-14) | 0.02
CC(=O)NCCCC[C@@H]1NC(=O)[C@H](Cc2ccc(-c3ccccc3)cc2)NC(=O)[C@H](Cc2ccc(O)cc2)NC(=O)[C@H](Cc2cccc(C)c2)NC(=O)[C@H](CC(=O)O)NC(=O)[C@H](Cc2ccc(OCC(=O)O)cc2)NC(=O)[C@H](C(C)O)NC(=O)CSC[C@@H](C(=O)N[C@H](CC(N)=O)C(N)=O)NC(=O)[C@H](C(C)O)NC(=O)[C@H](C(C)C)NC(=O)[C@H](CC2CCCCC2)NC(=O)[C@H](CCN)NC(=O)[C@@H](CC(C)C)NC(=O)[C@H](C)N(C)C1=O (stereo partly drawn) [Compound 2118] ({CH2CO}-[Thr(3ξ)]Y(Carboxymethyl)D[Phe(3-Me)]Y[Bip]K(Ac)[NMeA][dL][Dab][Cha]V[Thr(3ξ)]C[dN]-NH2; thioether N-14) | 0.05
